Assay results reported in patent US20220054425A1, “NANOCAPSULES COATED WITH CHITOSAN AND USE THEREOF” (SKINMED CO., LTD., priority 2018, published 2022).

Experiment: Skin permeability, Franz diffusion cell system
Assay type: in vitro ADME
Details: human cadaver skin, fluorescence, up to 24 hours
Excerpt: In a Franz diffusion cell system, a formulation including a drug is applied to a donor chamber while a receptor chamber is filled with physiological saline such as PBS (phosphate buffered saline), with a permeable layer, such as a permeable membrane, animal skin or cell culture skin, fixed between the donor chamber and the receptor chamber. Skin permeability can be determined by measuring the amount of the drug diffusing from the donor chamber to the receptor chamber.
In a Franz diffusion cell system, 5 ml of PBS (pH 7.4 containing 0.05% polysorbate 80) was added to the receptor chamber, a human cadaver skin with a size of 1.5×1.5 cm was fixed between the receptor chamber and the donor chamber, and each sample was placed in a donor chamber. The conditions of 37° C. and 600 rpm were set in the receptor chamber and 500 μl of the sample was recovered each time at sample times of 0.5, 1, 2, 4, 8, 12, 18, and 24 hours. The drug passing through the skin was quantitated according to time by HPLC. The result is depicted in FIG. 18.
To a donor chamber, chitosan-coated nanocapsules containing 2 wt % of Nile red (Nile red@ChiNC) were added in an amount of 2 mg/ml. As a control, Nile red alone, or Nile red-containing nanocapsules without a chitosan coating (Nile red@PluNC) were employed. […] Fluorescence in the samples taken at the predetermined times was measured. […]

SMILES: CCN(CC)c1ccc2nc3c4ccccc4c(=O)cc-3oc2c1 [Nile red]
- skin permeability of Nile red: almost did not penetrate into the skin
